Test results: the NIST ThermoML archive (doi:10.1016/j.jct.2019.05.011)
± gives the expanded uncertainty stated by the source.

Test: activity coefficient (dimensionless); of the first substance listed, at infinite dilution; xn = mol fraction of the nth substance listed
Conditions: 101.33 kPa, Liquid, Chromatography, x1 = 0

Row | SMILES | activity coefficient (313.15 K) | activity coefficient (323.15 K) | activity coefficient (333.15 K) | activity coefficient (343.15 K) | activity coefficient (298.15 K)
1 | Cc1ccccc1C [1,2-dimethylbenzene] + CC(CC(C)(C)C)CP(=O)([O-])CC(C)CC(C)(C)C.CCCCCCCCCCCCCC[P+](CCCCCC)(CCCCCC)CCCCCC | 0.6 ± 0.04 | 0.62 ± 0.04 | 0.64 ± 0.04 | 0.67 ± 0.05 | –
2 | Cc1cccc(C)c1 [1,3-dimethylbenzene] + CC(CC(C)(C)C)CP(=O)([O-])CC(C)CC(C)(C)C.CCCCCCCCCCCCCC[P+](CCCCCC)(CCCCCC)CCCCCC | 0.63 ± 0.04 | 0.65 ± 0.04 | 0.67 ± 0.05 | 0.7 ± 0.05 | –
3 | Cc1ccc(C)cc1 [1,4-dimethylbenzene] + CC(CC(C)(C)C)CP(=O)([O-])CC(C)CC(C)(C)C.CCCCCCCCCCCCCC[P+](CCCCCC)(CCCCCC)CCCCCC | 0.6 ± 0.04 | 0.63 ± 0.04 | 0.65 ± 0.04 | 0.69 ± 0.05 | –
4 | C=CCCCCCCCC [1-decene] + CC(CC(C)(C)C)CP(=O)([O-])CC(C)CC(C)(C)C.CCCCCCCCCCCCCC[P+](CCCCCC)(CCCCCC)CCCCCC | 0.98 ± 0.06 | 1.04 ± 0.07 | 1.15 ± 0.07 | 1.18 ± 0.08 | –
5 | C=CCCCCC [1-heptene] + CC(CC(C)(C)C)CP(=O)([O-])CC(C)CC(C)(C)C.CCCCCCCCCCCCCC[P+](CCCCCC)(CCCCCC)CCCCCC | 0.77 ± 0.05 | 0.81 ± 0.05 | 0.88 ± 0.06 | 0.95 ± 0.06 | –
6 | C=CCCCCCCC [1-nonene] + CC(CC(C)(C)C)CP(=O)([O-])CC(C)CC(C)(C)C.CCCCCCCCCCCCCC[P+](CCCCCC)(CCCCCC)CCCCCC | 0.91 ± 0.06 | 0.95 ± 0.06 | 1.08 ± 0.07 | 1.14 ± 0.07 | –
7 | CC(C)CC(C)(C)C [2,2,4-trimethylpentane] + CC(CC(C)(C)C)CP(=O)([O-])CC(C)CC(C)(C)C.CCCCCCCCCCCCCC[P+](CCCCCC)(CCCCCC)CCCCCC | 0.92 ± 0.06 | 0.96 ± 0.06 | 1.04 ± 0.07 | 1.14 ± 0.07 | –
8 | CCC(C)(C)C [2,2-dimethylbutane] + CC(CC(C)(C)C)CP(=O)([O-])CC(C)CC(C)(C)C.CCCCCCCCCCCCCC[P+](CCCCCC)(CCCCCC)CCCCCC | 0.78 ± 0.05 | 0.82 ± 0.05 | 0.9 ± 0.06 | 0.97 ± 0.06 | –
9 | CC(C)=O [acetone] + CC(CC(C)(C)C)CP(=O)([O-])CC(C)CC(C)(C)C.CCCCCCCCCCCCCC[P+](CCCCCC)(CCCCCC)CCCCCC | 0.7 ± 0.05 | 0.72 ± 0.05 | 0.78 ± 0.05 | 0.83 ± 0.05 | –
10 | c1ccccc1 [benzene] + CC(CC(C)(C)C)CP(=O)([O-])CC(C)CC(C)(C)C.CCCCCCCCCCCCCC[P+](CCCCCC)(CCCCCC)CCCCCC | 0.42 ± 0.04 | 0.45 ± 0.04 | 0.49 ± 0.04 | 0.52 ± 0.04 | –
11 | CCC(C)=O [butanone] + CC(CC(C)(C)C)CP(=O)([O-])CC(C)CC(C)(C)C.CCCCCCCCCCCCCC[P+](CCCCCC)(CCCCCC)CCCCCC | 0.65 ± 0.04 | 0.67 ± 0.05 | 0.72 ± 0.05 | 0.77 ± 0.05 | –
12 | Cc1ccccc1 [toluene] + CC(CC(C)(C)C)CP(=O)([O-])CC(C)CC(C)(C)C.CCCCCCCCCCCCCC[P+](CCCCCC)(CCCCCC)CCCCCC | 0.5 ± 0.04 | 0.51 ± 0.04 | 0.56 ± 0.04 | 0.59 ± 0.04 | –

The next lines start with the values.

Row | activity coefficient (313.15 K) | activity coefficient (323.15 K) | activity coefficient (333.15 K) | activity coefficient (343.15 K) | activity coefficient (298.15 K) | SMILES
13 | 1.34 ± 0.09 | 1.4 ± 0.09 | 1.41 ± 0.09 | 1.46 ± 0.1 | – | CC#N [acetonitrile] + CC(CC(C)(C)C)CP(=O)([O-])CC(C)CC(C)(C)C.CCCCCCCCCCCCCC[P+](CCCCCC)(CCCCCC)CCCCCC
14 | – | – | 0.11 ± 0.03 | 0.12 ± 0.03 | – | CCCCO [butan-1-ol] + CC(CC(C)(C)C)CP(=O)([O-])CC(C)CC(C)(C)C.CCCCCCCCCCCCCC[P+](CCCCCC)(CCCCCC)CCCCCC
15 | 0.57 ± 0.04 | 0.59 ± 0.04 | 0.64 ± 0.04 | 0.68 ± 0.05 | – | C1=CCCCC1 [cyclohexene] + CC(CC(C)(C)C)CP(=O)([O-])CC(C)CC(C)(C)C.CCCCCCCCCCCCCC[P+](CCCCCC)(CCCCCC)CCCCCC
16 | 0.7 ± 0.05 | 0.71 ± 0.05 | 0.77 ± 0.05 | 0.79 ± 0.05 | – | C1CCCCCCC1 [cyclooctane] + CC(CC(C)(C)C)CP(=O)([O-])CC(C)CC(C)(C)C.CCCCCCCCCCCCCC[P+](CCCCCC)(CCCCCC)CCCCCC
17 | 1.22 ± 0.08 | 1.28 ± 0.08 | 1.33 ± 0.09 | 1.39 ± 0.09 | – | CCCCCCCCCC [decane] + CC(CC(C)(C)C)CP(=O)([O-])CC(C)CC(C)(C)C.CCCCCCCCCCCCCC[P+](CCCCCC)(CCCCCC)CCCCCC
18 | – | 0.04 | 0.06 | 0.07 ± 0.03 | – | CCO [ethanol] + CC(CC(C)(C)C)CP(=O)([O-])CC(C)CC(C)(C)C.CCCCCCCCCCCCCC[P+](CCCCCC)(CCCCCC)CCCCCC
19 | 0.57 ± 0.04 | 0.6 ± 0.04 | 0.65 ± 0.04 | 0.68 ± 0.05 | – | CCc1ccccc1 [ethylbenzene] + CC(CC(C)(C)C)CP(=O)([O-])CC(C)CC(C)(C)C.CCCCCCCCCCCCCC[P+](CCCCCC)(CCCCCC)CCCCCC
20 | – | – | – | – | 0.874 ± 0.056 | CCCCCC [hexane] + CCCCCCCCCCCCCCCC
21 | 0.03 | 0.04 | 0.05 | 0.06 | – | CO [methanol] + CC(CC(C)(C)C)CP(=O)([O-])CC(C)CC(C)(C)C.CCCCCCCCCCCCCC[P+](CCCCCC)(CCCCCC)CCCCCC
22 | 0.64 ± 0.04 | 0.68 ± 0.05 | 0.73 ± 0.05 | 0.78 ± 0.05 | – | CC1CCCCC1 [methylcyclohexane] + CC(CC(C)(C)C)CP(=O)([O-])CC(C)CC(C)(C)C.CCCCCCCCCCCCCC[P+](CCCCCC)(CCCCCC)CCCCCC
23 | 1.04 ± 0.07 | 1.11 ± 0.07 | 1.23 ± 0.08 | 1.25 ± 0.08 | – | CCCCCCCCC [nonane] + CC(CC(C)(C)C)CP(=O)([O-])CC(C)CC(C)(C)C.CCCCCCCCCCCCCC[P+](CCCCCC)(CCCCCC)CCCCCC
24 | – | 0.07 ± 0.03 | 0.08 ± 0.03 | 0.09 ± 0.03 | – | CCCO [propan-1-ol] + CC(CC(C)(C)C)CP(=O)([O-])CC(C)CC(C)(C)C.CCCCCCCCCCCCCC[P+](CCCCCC)(CCCCCC)CCCCCC
25 | 0.43 ± 0.04 | 0.45 ± 0.04 | 0.49 ± 0.04 | 0.52 ± 0.04 | – | C1CCOC1 [tetrahydrofuran] + CC(CC(C)(C)C)CP(=O)([O-])CC(C)CC(C)(C)C.CCCCCCCCCCCCCC[P+](CCCCCC)(CCCCCC)CCCCCC
26 | 0.35 ± 0.03 | 0.4 ± 0.03 | 0.41 ± 0.03 | 0.44 ± 0.04 | – | c1ccsc1 [thiophene] + CC(CC(C)(C)C)CP(=O)([O-])CC(C)CC(C)(C)C.CCCCCCCCCCCCCC[P+](CCCCCC)(CCCCCC)CCCCCC
27 | 0.26 ± 0.03 | 0.27 ± 0.03 | 0.3 ± 0.03 | 0.31 ± 0.03 | – | O [water] + CC(CC(C)(C)C)CP(=O)([O-])CC(C)CC(C)(C)C.CCCCCCCCCCCCCC[P+](CCCCCC)(CCCCCC)CCCCCC
